Reference: patent US11484032B2, “Compositions for inhibition of insect sensing” (Vanderbilt University, priority 2011, dated 2022)

How the values were obtained:
[1] = test system: An. gambiae early 4th instar larvae; assay: Larval mosquito movement assay (Daniovision-Ethovision); assay type: in vivo, Anopheles gambiae
Description: Next, the agonist activity of the VUAA compound class was tested to establish the involvement of AgORs in mediating larval ortho and klinokinesis in response to a series of semiochemicals using larval-stage An. gambiae mosquitoes. Mosquito larvae are aquatic, thus compounds can be delivered to individual early 4th instar larvae regardless of volatility. The assay currently utilizes 6-well plates and the Daniovision-Ethovision platform (Noldus Inc.) to simultaneously record and analyze 6 larvae, thereby providing modest rates of throughput and a high degree of reproducibility. In these assays, larval movements are automatically quantified over 5-minute period and control larvae consistently move the same number of times in the presence or absence of 0.1% DMSO (p=0.80, n=31) (FIGS. 42-43). Furthermore, the effects of the widely-used synthetic insect repellent N, N-diethyl-meta-toluamide (DEET) was tested and DEET was also observed to increase larval movements at and above a threshold concentration of 5×10^−4M (p=0.013, n=27) (FIGS. 42-43).

[2] = biological target: T1, AgORco (Anopheles gambiae, UniProt Q7QCC7); assay: Whole-cell patch clamp, HEK293 cells stably expressing AgORco alone; assay type: cell-based
T1 construct: expressed in transfected cells
T1 sequence (Q7QCC7 1-478): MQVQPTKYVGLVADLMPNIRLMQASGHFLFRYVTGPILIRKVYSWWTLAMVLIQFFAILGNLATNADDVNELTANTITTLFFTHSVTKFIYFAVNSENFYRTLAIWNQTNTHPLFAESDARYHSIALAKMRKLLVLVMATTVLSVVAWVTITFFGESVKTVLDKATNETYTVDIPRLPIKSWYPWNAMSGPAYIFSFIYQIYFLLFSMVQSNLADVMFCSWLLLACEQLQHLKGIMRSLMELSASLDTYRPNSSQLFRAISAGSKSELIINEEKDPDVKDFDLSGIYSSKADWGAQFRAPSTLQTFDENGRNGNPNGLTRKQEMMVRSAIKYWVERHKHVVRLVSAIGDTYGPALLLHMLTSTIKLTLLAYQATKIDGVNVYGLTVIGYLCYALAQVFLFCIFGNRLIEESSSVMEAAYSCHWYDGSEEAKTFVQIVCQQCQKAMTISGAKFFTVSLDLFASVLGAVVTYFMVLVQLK
Description: Currents from OR-expressing HEK293 cells were amplified with an Axopatch 200b Amplifier (Axon Instruments) and digitized through a Digidata 1322A (Axon Instruments). Electrophysiological data was recorded and analyzed using pCLAMP 10 (Axon Instruments). Electrodes were fabricated from quartz tubing (Sutter Instruments) and pulled to 4-6 MiΩ for whole cell recording. Electrodes were filled with internal solution (120 mM KCl, 30 mM D-glucose, 10 mM HEPES, 2 mM MgCl2, 1.1 mM EGTA, and 0.1 CaCl2) (pH 7.35, 280 mOsm). External (bath) solution contained 130 mM NaCl, 34 mM D-glucose, 10 mM HEPES, 1.5 mM CaCl2), 1.3 mM KH2PO4, and 0.5 MgSO4 (pH 7.35, 300 mOsm). Compounds were diluted in external solution and locally perfused to the recording cell using Perfusion Pencil (Automate Scientific) and controlled by a ValveLink 8.2 controller (Automate Scientific). Whole cell recordings were sampled at 10 kHz and filtered at 5 kHz. Outside-out patches were obtained using 10-15MΩ electrodes pulled from standard glass capillaries (World Precision Instruments) and fire-polished with an MF-830 micro forge (Narishige). Single channel recordings were sampled at 20 kHz. Recordings were reduced to 1 kHz and low-pass filtered at 500 Hz for display and analysis using QuB (SUNY at Buffalo).
To test the hypothesis that VUAA1 directly agonized AgORco, whole-cell patch clamp responses were examined in AgORco+AgOR10 expressing cells as well as HEK293 cells stably expressing AgORco alone. […] The VUAA1-dependent currents in AgORco+AgOR10 cells resembled those resulting from application of benzaldehyde, an orthosteric agonist of AgOR10 (FIG. 3C) (Wang, 2010; Carey, 2010). […] To investigate the specificity of VUAA1 agonism, the inventors transiently transfected HEK cells with the AgORco orthologs of Drosophila melanogaster and Heliothis virescens, DmORco and HvOR2 respectively.

Q: Which results are given for `CCc1ccc(NC(=O)CSc2nnc(-c3cccnc3)n2CC)cc1` [VUAA1, 2-((4-ethyl-5-(pyridin-3-yl)-4H-1,2,4-triazol-3-yl)thio)-N-(4-ethylphenyl)acetamide]?
A: larval movements at higher concentration ([1]; 5×10^−5M): larval movements were observed to decrease; larval response in AgOrco siRNA-treated larvae ([1]; AgOrco siRNAs injected 48 h before, vs buffer-injected control): no longer responsive; increase over the response threshold of DEET ([1]; in vivo): 5 orders of magnitude; threshold concentration for increased larval movement ([1]; movements over 5-minute period): 5 nM; whole-cell current response ([2]; AgORco alone cells, holding potential −60 mV): concentration-dependent inward currents; reversal potential of agonist-induced current ([2]; AgORco alone, mean s.e.m.): +0.4±1.1 mV; whole-cell current response at −5.0 log M ([2]; −5.0 log M): no response
